Assay results taken from PMC11678245, “The Molecular Basis of the Intrinsic and Acquired Resistance to Azole Antifungals in Aspergillus fumigatus” (Journal of Fungi, 2024).
Where “and” joins values, the source holds several entries; their conditions need not be identical. Identical values can stand only once.

Key:
AfCYP51B-6×His = molecular target: T1, AfCYP51B-6×His (Aspergillus fumigatus, UniProt E9QY26); test: Type II binding of azole drugs (difference spectra); conditions: for λpeak (type II difference spectrum) / λtrough (type II difference spectrum) / ΔAmax (type II binding) / Kd: 1 μM enzyme; for ΔAmax (type II binding) / Kd: Hill equation; for Hill Number / Kd: type II binding
T1 sequence (E9QY26 1-524): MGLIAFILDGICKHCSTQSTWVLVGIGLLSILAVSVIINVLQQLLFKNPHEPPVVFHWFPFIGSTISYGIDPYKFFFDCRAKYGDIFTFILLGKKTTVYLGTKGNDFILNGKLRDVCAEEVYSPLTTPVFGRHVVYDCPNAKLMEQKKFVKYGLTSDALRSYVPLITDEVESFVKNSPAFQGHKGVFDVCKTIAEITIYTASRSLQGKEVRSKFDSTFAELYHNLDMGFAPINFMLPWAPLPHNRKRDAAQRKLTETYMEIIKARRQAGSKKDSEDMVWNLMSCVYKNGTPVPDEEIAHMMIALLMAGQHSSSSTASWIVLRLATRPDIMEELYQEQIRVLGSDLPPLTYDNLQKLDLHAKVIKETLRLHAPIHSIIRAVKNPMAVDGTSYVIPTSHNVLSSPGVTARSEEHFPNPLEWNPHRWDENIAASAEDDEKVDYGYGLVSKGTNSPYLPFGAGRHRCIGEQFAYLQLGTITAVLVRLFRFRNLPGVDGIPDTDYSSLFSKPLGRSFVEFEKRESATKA
Description: (§1) The concentration of AfCYP51A and AfCYP51B, purified using Ni-NTA affinity chromatography and used for the spectrophotometric type I and type II binding assays, was calculated using an extinction co-efficient of λ417nm = 117 mM^−1 cm^−1 applied to the absolute absorption spectrum of the preparations. In addition, the amount of “active” cytochrome P450 enzyme was determined using the carbon monoxide (CO) binding spectra of these preparations.
(§2) Type II binding difference spectra were obtained using 1 μM of affinity-purified CYP51 enzymes. VCZ, PCZ, VT-1161, DCZ, and MCF working solutions were prepared in DMSO, while FLC was prepared in Milli-Q water. Azole drugs were added to the sample cuvette, and corresponding amounts of DMSO or Milli-Q water were added to the reference cuvette. Drug binding curves were plotted using the difference spectrum peak and trough detected in the range of 410–425 nm. Dissociation constants (Kd) were determined by nonlinear regression (Levenberg–Marquardt algorithm) of the difference in absorbance between the peak and trough against the azole concentration using a rearrangement of the Morrison equation or the Hill equation [7]. GraphPad Prism 9.2.0 software was used to identify the best fit for the data.

AfCYP51A-6×His = AfCYP51A-6×His (Aspergillus fumigatus, UniProt Q4WNT5); test: as above; conditions: for λpeak (type II difference spectrum) / λtrough (type II difference spectrum) / ΔAmax (type II binding) / Hill Number / Kd: AfCYP51A; for λpeak (type II difference spectrum) / λtrough (type II difference spectrum) / ΔAmax (type II binding) / Kd: 1 μM enzyme; for ΔAmax (type II binding) / Kd: Hill equation
Sequence of AfCYP51A-6×His (Q4WNT5 whole entry): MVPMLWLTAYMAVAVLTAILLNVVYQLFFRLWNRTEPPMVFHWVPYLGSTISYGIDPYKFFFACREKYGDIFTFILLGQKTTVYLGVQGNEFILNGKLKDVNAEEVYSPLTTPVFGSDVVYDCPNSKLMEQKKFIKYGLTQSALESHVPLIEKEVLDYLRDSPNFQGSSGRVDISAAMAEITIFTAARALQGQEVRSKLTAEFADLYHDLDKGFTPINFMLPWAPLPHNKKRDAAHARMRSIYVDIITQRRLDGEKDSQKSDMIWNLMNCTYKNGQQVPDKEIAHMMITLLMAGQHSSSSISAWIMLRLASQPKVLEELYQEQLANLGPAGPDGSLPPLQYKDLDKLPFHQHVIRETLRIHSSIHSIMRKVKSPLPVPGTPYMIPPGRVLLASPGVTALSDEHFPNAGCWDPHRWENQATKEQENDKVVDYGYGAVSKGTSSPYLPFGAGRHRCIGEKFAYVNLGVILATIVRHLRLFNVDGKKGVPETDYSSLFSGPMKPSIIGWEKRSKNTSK
Description: as §1, §2

[1] = tested on: S. cerevisiae strain BRE (Y2747); test: Sterol analysis of recombinant yeast strain (GC-MS); format: cell-based, Saccharomyces cerevisiae; conditions: VCZ at concentration slowing growth rate by ~50%, ~1% without VCZ
Description: (§3) Yeast strains grown overnight in SD medium pH 6.8 were inoculated in 20 mL fresh medium and grown to OD600nm = 0.5. The cultures were then treated with VCZ at a concentration that reduced the rate of cell growth by ~50%. Untreated control cultures were harvested by centrifugation after 8 h at a cell density of ~2.5, and VCZ-treated cultures were harvested after ~16 h at a similar cell density. The harvested cells were prepared for sterol extraction and analysis using the method described by Müller et al..

[2] = tested on: S. cerevisiae strain ARE (Y2746); test: as above; format: cell-based, Saccharomyces cerevisiae; conditions: VCZ at concentration slowing growth rate by ~50%, 20% without VCZ
Description: as §3

For `OC(Cn1cncn1)(Cn1cncn1)c1ccc(F)cc1F` [FLC, fluconazole], the “λpeak (type II difference spectrum)” value (AfCYP51B-6×His) was 425 nm, the “λtrough (type II difference spectrum)” value (AfCYP51B-6×His) was 407 nm and the “ΔAmax (type II binding)” value (AfCYP51B-6×His) was 0.09. The “Hill Number” value (AfCYP51B-6×His) was 1.75, the Kd (AfCYP51B-6×His) was 1.43 ± 0.07 µM and the “λpeak (type II difference spectrum)” value (AfCYP51A-6×His) was 422 nm. For the same compound, the “λtrough (type II difference spectrum)” value (AfCYP51A-6×His) was 383 nm, the “ΔAmax (type II binding)” value (AfCYP51A-6×His) was 0.10 and the “Hill Number” value (AfCYP51A-6×His; type II binding) was 0.72. For the same compound, the Kd (AfCYP51A-6×His; type II binding) was 3.23 ± 1.13 µM and the “Kd of AfCYP51A relative to AfCYP51B” value (AfCYP51A-6×His; type II binding) was 2.26 fold.

With `C[C@@H](c1ncncc1F)[C@](O)(Cn1cncn1)c1ccc(F)cc1F` [VCZ, voriconazole] the “eburicol content in the presence of VCZ” value [1] was ~ 20 % of total sterol, the “eburicol content in the presence of VCZ” value [2] was 25 % of total sterol and the “λpeak (type II difference spectrum)” value (AfCYP51B-6×His) was 427 nm. For the same compound, the “λtrough (type II difference spectrum)” value (AfCYP51B-6×His) was 410 nm, the “ΔAmax (type II binding)” value (AfCYP51B-6×His) was 0.03 and the “Hill Number” value (AfCYP51B-6×His) was 1.12. For the same compound, the Kd (AfCYP51B-6×His) was 0.8 ± 0.31 µM, the “λpeak (type II difference spectrum)” value (AfCYP51A-6×His) was 422 nm and the “λtrough (type II difference spectrum)” value (AfCYP51A-6×His) was 392 nm. The “ΔAmax (type II binding)” value (AfCYP51A-6×His) was 0.05, the “Hill Number” value (AfCYP51A-6×His; type II binding) was 1.10 and the Kd (AfCYP51A-6×His; type II binding) was 1.5 µM and 1.52 µM.
